From US8063210B2, “Process and intermediate” (AstraZeneca AB, priority 2006, dated 2011)

Tests used:
[1] = test system: human colorectal (SW620, HCT116, Colo205) and lung (A549, Calu-6) tumour xenografts; assay: tumour growth inhibition in human tumour xenografts; type: in vivo; details: panel of human colorectal (SW620, HCT116, Colo205) and lung (A549, Calu-6) tumour xenografts; with statistical significance
[2] = pro-drug conversion to the active moiety in human plasma; type: in vitro ADME

CCN(CCCOc1ccc2c(Nc3cc(CC(=O)Nc4cccc(F)c4)n[nH]3)ncnc2c1)CCOP(=O)(O)O [AZD1152, 2-{ethyl[3-({4-[(5-{2-[(3-fluorophenyl)amino]-2-oxoethyl}-1H-pyrazol-3-yl)amino]quinazolin-7-yl}oxy)propyl]amino}ethyl dihydrogen phosphate]
inhibition of tumour growth [1]: inhibit tumour growth | conversion of pro-drug to active moiety AZD1152 HQPA [2]: rapidly and completely converted
